Experiments:
[1] = system: human BCL11A erythroid enhancer; assay: Tiled pooled CRISPR-Cas9 screen for in situ functional mapping of the human BCL11A erythroid enhancer (HbF-high/HbF-low sort, sgRNA deep sequencing); format: cell-based; conditions: for Enrichment Score: HbF enrichment, human library NGG and NGG RC sgRNAs filtered for enrichment score >0.259; for Dropout Score: human library sgRNAs that produced HbF enrichment over 0.259
Outline: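 HUDEP-2 cells stably expressing Cas9 transduced at low multiplicity with tiled sgRNA library covering +55/+58/+62 DHS, selected with blasticidin/puromycin, expanded one week then differentiated one week. Top and bottom 10% HbF-stained cells FACS-sorted; sgRNA representation determined by deep sequencing of genomic DNA.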

[2] = system: CUL3; assay: ddPCR quantification of CUL3 expression in A375 cells transduced with individual sgRNAs; format: cell-based, human; conditions: A375, relative to non-targeting sgRNAs; result in words
Excerpt: Array Validation of Primary Screen Hits
For individual (array) validation of noncoding sgRNAs, Applicants first identified sgRNAs enriched in the top 5% of the library as given by the normalized log 2(Vemu/DMSO) read ratio. In order to have high confidence in these sgRNAs, Applicants used the minimum of the two infection replicates for the normalized log2 (Vemu/DMSO) read ratio. […] This ensures that putative noncoding functional elements were supported by the presence of at least 2 enriched sgRNAs. From this group, Applicants picked 25 sgRNAs distributed across different genomic regions for individual validation (see table S2 for a list of sgRNA sequences). Applicants also included 3 exon-targeting and 3 non-targeting sgRNAs to serve as positive and negative controls, respectively.
For each sgRNA, standard desalted short oligonucleotides (Integrated DNA Technologies) were annealed, phosphorylated and cloned into a lentiviral vector (lentiCRISPRv2, Addgene 52961) that contained Cas9 and an sgRNA cassette. For each sgRNA, A375 cells were transduced with lentiviral supernatants. After 24 hours, media was replaced with R10 with 1 ug/mL of puromycin. Viral volumes were titered such that 20-40% of cells survived after puromycin selection. After selection and expansion for 7 days in puromycin, cell were plated for DNA/RNA extraction, vemurafenib resistance, or ChIP assays.
RNA Extraction and ddPCR Quantification of CUL3 Expression
After 7 days of puromycin selection, A375 cells transduced with individual lentiCRISPRv2 sgRNAs were plated in 3 replicate wells (2×10^3 cells/well) in 96-well plates. After 4 days (70-90% confluent), RNA was extracted using a homemade version of a rapid lysis kit for quantitative PCR (similar to commercial “Cells-to-Ct”-style kits). This procedure (detailed below) enables rapid RNA extraction and qPCR/ddPCR readout from 96-well plates with minimal hands-on time.
Cells were first washed in 100 ul of chilled phosphate-buffered saline (PBS). Then, cells were incubated at room temperature for 8 minutes in 50 ul of Complete Lysis Buffer. The Complete Lysis Buffer consists of the Base Lysis Buffer with freshly added 100 ug/ml Proteinase K (Sigma P2308) and 300 U/mL DNase I (Sigma D2821). When adding DNase I, it is important to not vortex but mix only by gentle pipetting. The Base Lysis Buffer is made in RNAse-free water (ThermoFisher Scientific 10977015) with 10 mM Tris pH8 (Ambion AM9856), 0.5 mM MgCl2 (Sigma M1028), 0.44 mM CaCl2 (Sigma 21115), 10 uM DTT (Sigma 43816), 0.1% Triton X-114 (Calbiochem 648468), and 1.73 mN HCl (Sigma 318965) and should have a final pH of 7.8. The Base Lysis Buffer is stable at 4° C. for up to 6 months.
After the 8-minute incubation in Complete Lysis Buffer, 30 ul of the cell lysis was added to new PCR plates containing 3 ul of STOP buffer in each well to stop the lysis reaction. The STOP buffer is made in RNAse-free water with 1 mM Proteinase K inhibitor AAPF N-(Methoxysuccinyl)-Ala-Ala-Pro-Phe-chloromethyl ketone (SEQ ID NO: 174) (Millipore 539470), 90 mM EDTA (ThermoFisher Scientific 15575020), and 113 uM DTT (Sigma 43816). The final pH of the STOP buffer should be 8, adjusted appropriately with HCl and KOH. The STOP buffer is stable for up to 6 months at 20° C. The lysis reaction was mixed with the STOP buffer by pipetting up and down 5 times. Applicants then incubated the lysis and STOP buffer for at least 2 minutes but not more than 20 minutes. (Extra stopped lysis can be stored at −80° C. for up to 5 months.)
Applicants transferred 5 ul of the stopped lysis to new PCR plates with 20 ul of RT master mix. The RT master mix is from the RevertAid Reverse Transcriptase kit (ThermoFisher Scientific K1691) and is as described in the manufacturer's protocol but with an added oligo-dT primer. […]

[3] = system: YY1; assay: ChIP-ddPCR for YY1; format: cell-based, human; conditions: ChIP-ddPCR around cut site vs non-targeting sgRNA
Procedure: Chromatin Immunoprecipitation (ChIP) for Histone Modifications and Transcription Factors
After 7 days of puromycin selection, A375 cells transduced with individual lentiCRISPRv2 sgRNAs were plated in T-225 flasks and grown to 70-90% confluence (6 days). At this point, chromatin fixation was initiated by adding formaldehyde directly to the growth media (final concentration 1%) and incubating at 37° C. for 10 minutes. The entire two-day ChIP procedure was performed using the Magna ChIP HiSens Chromatin Immunoprecipitation Kit (Millipore 1710460), as specified in the manufacturer's protocol. […]
Using BatchPrimer3, Applicants designed primers centered on the sgRNA target site with a target amplicon size of 80-120 bp (see table S4 for ChIP-ddPCR primers). Droplet digital PCR (ddPCR) reactions using EvaGreen (BioRad 1864034) were used to quantify changes between input, histone/TF ChIP, and IgG ChIP samples for A375 cells transduced with specific sgRNAs and untransduced A375 cells. […] Applicants calculated the percent change in ChIP signal after genome editing by normalizing each ChIP sample to its corresponding input sample and then comparing the normalized ChIP between A375s transduced with specific sgRNAs and untransduced (control) A375 cells.

Substance	Enrichment Score [1]	Dropout Score [1]	CUL3 expression [2]	decrease of YY1 binding [3]
BCL_00058_H_D55 (guide CCTCTATGTAGACGGGTGTGNGG; listed as DNA, chemistry not given here)	0.3237	−0.4848		
BCL_00183_H_D58 (guide AAGAGGCCCCCCTGGGCAAANGG; listed as DNA, chemistry not given here)	0.7853	−0.5913		
BCL_02011_H_exon2 (guide CTGGAGCTCCCAACGGGCCGNGGRC; listed as DNA, chemistry not given here)	0.6044	0.7912		
BCL_00051_H_D55 (guide GGAGGTGTGGAGGGGATAACNGG; listed as DNA, chemistry not given here)	0.3141	−0.1655		
BCL_00251_H_exon2 (guide GGCCCGTTGGGAGCTCCAGANGG; listed as DNA, chemistry not given here)	1.911	−1.236		
BCL_00229_H_D62 (guide CCCAGCACTTTGGGAGGCCGNGG; listed as DNA, chemistry not given here)	0.6113	−8.717		
BCL_01990_H_exon2 (guide GATAAACAATCGTCATCCTCNGGRC; listed as DNA, chemistry not given here)	0.8422	−0.6128		
BCL_01495_H_D55 (guide AGGGAGAAATGAGACAAAAGNGGRC; listed as DNA, chemistry not given here)	0.2643	−0.4932		
BCL_00012_H_D55 (guide AAGTGAGCCAGGTGATAGAANGG; listed as DNA, chemistry not given here)	0.3511	−0.01983		
BCL_01828_H_D62 (guide CTCTTCTCCAGGGTGTGGGGNGGRC; listed as DNA, chemistry not given here)	0.3485	−0.391		
BCL_01626_H_D55 (guide TTTGGCCTCTGATTAGGGTGNGGRC; listed as DNA, chemistry not given here)	1.336	−0.2724		
BCL_00255_H_exon2 (guide ATCATGACCTCCTCACCTGTNGG; listed as DNA, chemistry not given here)	1.703	−2.497		
BCL_00265_H_exon2 (guide GCATCCAATCCCGTGGAGGTNGG; listed as DNA, chemistry not given here)	1.291	−0.8895		
BCL_02009_H_exon2 (guide TCCCCTTCTGGAGCTCCCAANGGRC; listed as DNA, chemistry not given here)	2.108	−1.693		
BCL_02004_H_exon2 (guide CCCCCAATGGGAAGTTCATCNGGRC; listed as DNA, chemistry not given here)	0.4685	−0.1189		
BCL_00065_H_D55 (guide GCCAACAGTGATAACCAGCANGG; listed as DNA, chemistry not given here)	0.4886	−0.5415		
5′-UTR sg1: validation sgRNA AGGAGGAGGAGGACGACGTT, SEQ ID NO 457, 5′ UTR (expressed or natural sequence)			significantly decrease	26%
BCL_02001_H_exon2 (guide CCACAGCTTTTTCTAAGCAGNGGRC; listed as DNA, chemistry not given here)	0.4913	−0.2495		
BCL_00085_H_D55 (guide GGGTGTGCCCTGAGAAGGTGNGG; listed as DNA, chemistry not given here)	0.5011	−0.6263		
BCL_00084_H_D55 (guide AGGGTGTGCCCTGAGAAGGTNGG; listed as DNA, chemistry not given here)	0.311	−0.3691		
BCL_01800_H_D62 (guide GCCCCGGCCTCCCAAAGTGCNGGRC; listed as DNA, chemistry not given here)	0.6113	−7.65		
BCL_01665_H_D58 (guide TGTAACTAATAAATACCAGGNGGRC; listed as DNA, chemistry not given here)	0.4418	−0.6516		
BCL_02015_H_exon2 (guide AAGAATGGCTTCAAGAGGCT; chemistry not given here)	1.064	−1.349		
BCL_01454_H_D55 (guide GGGTCGCGGTAGGGAGTTGTNGGRC; listed as DNA, chemistry not given here)	0.3579	−0.5577		
BCL_00088_H_D55 (guide GCATCATCCTGGTACCAGGANGG; listed as DNA, chemistry not given here)	0.4386	−0.3713		
